Experimental data taken from US20110076240A1, “Antifungal and Anti-Cariogenic Cellobio-Oligosaccharides Produced by Dextransucrase” (priority 2008, published 2011).

System: mutansucrase
Assay: Inhibition of water insoluble glucan synthesis (absorbance at 550 nm; adherence to glass vials)
Format: biochemical, Streptococcus mutans and S. sorbrinus
Settings: 50 mM test substance, 1 M sucrose, 37° C., 48 h
Experimental: Isolation of Oral Bacteria and Production of Mutansucrase: Oral bacteria were collected by a cotton swab from human teeth and streaked onto a brain heart infusion (BHI) agar containing 4% sucrose. The culture was grown at 37° C. until visible colonies of Streptococcus mutans and S. sorbrinus appeared. The colonies were grown in 1 L BHI at 37° C. with shaking at 150 rpm for 24-36 h to induce production of mutansucrase secreted outside the cell membrane. After incubation, the culture was harvested by centrifugation, and the supernatant with the mutansucrase was concentrated to 100 ml using a 30 K cut-off membrane filter. One unit of mutansucrase in the concentrated supernatant was defined as the amount of enzyme that catalyzes the formation of 1 μmol of fructose per minute at 37° C., pH 7.0, from 100 mM sucrose.
These cultures were grown in glass vials at 37° C. for 48 h.
The supernatants of individual reaction mixtures were discarded such that the insoluble glucans remained in the vial. To compare the amount of insoluble glucans produced, the synthesized glucans on the glass were washed with a HEPES buffer and dissolved in 0.5 N NaOH. The resulting wash was used to measure the soluble glucans. The absorbance of water insoluble glucans was measured at 550 nm. For visualization, synthesized glucans were dyed with a drop of dental disclosing solution.

## O=C[C@H](O)[C@@H](O)[C@H](O[C@@H]1O[C@H](CO)[C@@H](O)[C@H](O)[C@H]1O)[C@H](O)CO [cellobiose]
  insoluble glucans produced compared to the control mixture: did not affect
